From patent publication US4801596A, “Nitroxy amino propanols for treating heart and circulatory diseases” (Boehringer Mannheim GmbH, priority 1984, dated 1989) come the findings set out here.

Counter-ions that a name gives are not always drawn.

For test [1], the system named is rat livers. Briefly: denitration rate in re-perfused rat livers (nitrate-like action). To be noted: rat liver re-perfused 4 min, equimolar 5×10^-5 M/l; freed NO2 determined in the perfusate; high values = fast denitration.
Test [2] relates to β-receptor. Briefly: β-blocking effectiveness: inhibition of isoprenaline-induced increase of the frequency in rabbits. Format: in vivo, rabbit. To be noted: i.v., isoprenaline 1 mcg/kg i.v.

On to `CC(C)(C)NCC(O)COc1ccc(CC(=O)NCCCO[N+](=O)[O-])cc1` (centres unmarked) [Example 8, 1-[4-[(3-Nitroxypropyl)-amino]-carbonylmethyl]-phenoxy-3-tert.-butylaminopropan-2-ol fumarate], for which the “Vrel (denitration rate in relation to isosorbide-5-mononitrate)” value (“Vrel” below) in test [1] is 0.48.

Consider `CC(C)(C)NCC(O)COc1ccc(CC(=O)N2CCCC(CO[N+](=O)[O-])C2)cc1` (centres unmarked) [9 (g), 1-[4-(3-nitroxymethyl-1-piperidino)-carbonylmethyl]-phenoxy-3-tert.-butylaminopropan-2-ol fumarate], for which the “Vrel” value in test [1] came out at 1.69. Consider `CC(=O)c1cc(NC(=O)[C@H]2CC[C@H](O[N+](=O)[O-])CC2)ccc1OCC(O)CNC(C)(C)C` (relative stereo) [6 (c), 1-[2-methylcarbonyl-4-[[(t-4-nitroxy)-cyclohexyl]-r-1-carbonylamino]]-phenoxy-3-tert.-butylaminopropan-2-ol hydrochloride], for which, in test [1], the “Vrel” value is recorded as 1.34. Also, the “ID 50 fcor (dose causing 50% inhibition of the increase of the frequency through isoprenaline)” value in test [2] is reported as 2 273 mcg/kg. As to `CC(C)(C)NCC(O)COc1ccc(CC(=O)N[C@@H]2CCCC[C@H]2O[N+](=O)[O-])cc1` (relative stereo) [9 (d), trans-1-[4-[(2-nitroxycyclohexyl)-amino]-carbonylmethyl]-phenoxy-3-tert.-butylaminopropan-2-ol], the “Vrel” value in test [1] was found to be 1.06. On to `CC(CNC(=O)Cc1ccc(OCC(O)CNC(C)(C)C)cc1)O[N+](=O)[O-]` (centres unmarked) [9 (a), 1-[4-[(2-nitroxypropyl)-amino]-carbonylmethyl]-phenoxy-3-tert.-butylaminopropan-2-ol hemifumarate], for which the “Vrel” value in test [1] is on record as 0.34. Moreover, the “ID 50 fcor (dose causing 50% inhibition of the increase of the frequency through isoprenaline)” value in test [2] is given as 3 147 mcg/kg. On the same counts, the results for `CC(C)(C)NCC(O)COc1ccc(NC(=O)[C@H]2CC[C@H](O[N+](=O)[O-])CC2)cc1` (relative stereo) [2 (e), 1-[4-[[(t-4-nitroxy)-cyclohexyl]-r-1-carbonylamino]]-phenoxy-3-tert.-butylaminopropan-2-ol hydrochloride] are 0.95 and 4 006 mcg/kg. For the molecule `CCOC(=O)c1cc(NC(=O)CCCO[N+](=O)[O-])ccc1OCC(O)CNC(C)(C)C` (centres unmarked) [Example 7, 1-[2-Ethoxycarbonyl-4-(3-nitroxypropyl)-carbonylamino]phenoxy-3-tert.-butylaminopropan-2-ol cyclamate], the “Vrel” value in test [1] is recorded as 1.72. Further, the “ID 50 fcor (dose causing 50% inhibition of the increase of the frequency through isoprenaline)” value in test [2] is listed as 1 619 mcg/kg. `CC(C)(C)NCC(O)COc1ccc(CC(=O)N2CCC(CO[N+](=O)[O-])CC2)cc1` (centres unmarked) [9 (h), 1-[4-(4-nitroxymethyl-1-piperidino)-carbonylmethyl]-phenoxy-3-tert.-butylaminopropan-2-ol fumarate]: in test [1], the “Vrel” value amounted to 1.06. Further, in test [2], the “ID 50 fcor (dose causing 50% inhibition of the increase of the frequency through isoprenaline)” value is listed as 1 207 mcg/kg.

On to `CC(C)(C)NCC(O)COc1ccc(NC(=O)CCCO[N+](=O)[O-])cc1C#N` (centres unmarked) [4 (a), 1-[2-cyano-4-(3-nitroxypropyl)-carbonylamino]-phenoxy-3-tert.-butylaminopropan-2-ol hydrochloride], for which the “Vrel” value in test [1] came to 0.74. Also, in test [2], the “ID 50 fcor (dose causing 50% inhibition of the increase of the frequency through isoprenaline)” value was 180 µg/kg. Take `CC(C)(C)NCC(O)COc1ccc(NC(=O)CCCO[N+](=O)[O-])cc1` (centres unmarked) [Example 1, 1-[4-(3-Nitroxypropyl)-carbonylamino]-phenoxy-3-tert.-butylaminopropan-2-olhydrochloride]: the “Vrel” value in test [1] is recorded as 0.77. Further, the “ID 50 fcor (dose causing 50% inhibition of the increase of the frequency through isoprenaline)” value in test [2] is reported as 2 326 mcg/kg. As to `CC(C)(C)NCC(O)COc1ccc(NC(=O)CCCCO[N+](=O)[O-])cc1` (centres unmarked) [2 (a), 1-[4-(4-nitroxybutyl)-carbonylamino]-phenoxy-3-tert.-butylaminopropan-2-ol fumarate], the “Vrel” value in test [1] was determined as 0.65. For the molecule `CN(CC(C)(C)CO[N+](=O)[O-])C(=O)Cc1ccc(OCC(O)CNC(C)(C)C)cc1` (centres unmarked) [9 (c), 1-[4-[[N--(2,2-dimethyl-3-nitroxypropyl)-N--methyl]-amino]-carbonylmethyl]-phenoxy-3-tert.-butylaminopropan-2-ol fumarate], the “Vrel” value in test [1] is given as 1.63.

With `C#CC(C)(C)NCC(O)COc1ccc(CC(=O)N2CCC(CO[N+](=O)[O-])CC2)cc1` (centres unmarked) [9 (j), 3-(2-methyl-3-butyn-2-yl)-amino-1-[4-(4-nitroxymethyl-1-piperidino)-carbonylmethyl]-phenoxypropan-2-ol fumarate], in test [1], the “Vrel” value is 1.94. On to `CC(C)(C)NCC(O)COc1ccc(NC(=O)C(C)(C)CO[N+](=O)[O-])cc1` (centres unmarked) [2 (b), 1-[4-(2-methyl-1-nitroxy-2-propyl)-carbonylamino]-phenoxy-3-tert.-butylaminopropan-2-ol hydrochloride], for which the “Vrel” value in test [1] is given as 0.68. For the same molecule, in test [2], the “ID 50 fcor (dose causing 50% inhibition of the increase of the frequency through isoprenaline)” value is 4 164 mcg/kg.

`O=[N+]([O-])O[C@@H]1CO[C@H]2[C@@H]1OC[C@@H]2O` [Isosorbide-5-mononitrate, isosorbide-5-mononitrate, reference compound]: the “Vrel” value in test [1] was 0.86. Turning to `CC(C)(C)NCC(O)COc1ccc(NC(=O)[C@H]2CC[C@H](O[N+](=O)[O-])CC2)cc1C#N` (relative stereo) [4 (c), 1-[2-cyano-4-[[(t-4-nitroxy)-cyclohexyl]-r-1-carbonylamino]]-phenoxy-3-tert.-butylaminopropan-2-ol benzoate], the “Vrel” value in test [1] is 1.95. The same measure, in the same setting: under `CC(C)(C)NCC(O)COc1ccc(CC(=O)N2CCC(O[N+](=O)[O-])CC2)cc1` (centres unmarked) [9 (f), 1-[4-(4-nitroxy-1-piperidino)-carbonylmethyl]-phenoxy-3-tert.-butylaminopropan-2-ol fumarate] stands 1.23. Turning to `CC(C)(C)NCC(O)COc1ccc(NC(=O)C[C@@H]2CCCC[C@H]2O[N+](=O)[O-])cc1` (relative stereo) [2 (g), 1-[4-[[(t-2-nitroxy)-cyclohexyl]-r-1-methylcarbonylamino] ]-phenoxy-3-tert.-butylaminopropan-2-ol hydrochloride], in test [1], the “Vrel” value turned out to be 0.97. The “ID 50 fcor (dose causing 50% inhibition of the increase of the frequency through isoprenaline)” value in test [2] is reported as 4 158 mcg/kg. The corresponding values for `CC(=O)c1cc(NC(=O)CCCO[N+](=O)[O-])ccc1OCC(O)CNC(C)(C)C` (centres unmarked) [6 (a), 1-[2-methylcarbonyl-4-(3-nitroxypropyl)-carbonylamino]-phenoxy-3-tert.-butylaminopropan-2-ol fumarate] are 0.51 and 886 µg/kg.
